Source: patent US8772309B2, “Pharmaceutical formulation of apomorphine for buccal administration” (Amarin Pharmaceuticals Ireland Limited, priority 2005, dated 2014)

Assays:
[1] = Ionisation of apomorphine (pKa, un-ionised proportion against pH); format: physicochemical
From the text: For optimal buccal absorption the apomorphine used should ideally be un-ionised at physiological pH.
If the pH of the product is adjusted to about 8.0, approximately 10% of the apomorphine becomes un-ionised and thus available for absorption. The pH-dependent degree of ionisation of the drug is maintained by a dynamic equilibrium. As un-ionised drug is removed by absorption, more ionised drug becomes un-ionised in order to restore the equilibrium. As a result there is always a sufficient amount of un-ionised drug generated that can be absorbed rapidly.

[2] = tested on: "on-off" fluctuations in Parkinson's disease; conditions: sublingual administration, patients responsive to subcutaneous apomorphine; cited from earlier work

Proportion of apomorphine un-ionised ([1]; pH 3.5): negligible | Proportion of apomorphine un-ionised ([1]; pH adjusted to about 8.0): approximately 10%
SMILES: CN1CCc2cccc3c2[C@H]1Cc1ccc(O)c(O)c1-3 [apomorphine]
Mean time to onset of effect [2]: approximately 30 minutes
